The results in this text go back to patent US20230143612A1 (Arbutus Biopharma Corporation, priority 2020, published 2023).

Usually IC50 stands for the midpoint of a concentration-inhibition curve.

This assay addresses PD-L1 His protein / PD-1 Fc protein (Homo sapiens, UniProt Q9NZQ7). The assay can be described thus: HTRF Assay (PD-1/PD-L1 interaction). In kind it is binding. The following applies: PD-L1 His 6 nM, PD-1 Fc 6 nM. The procedure, abridged:
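Compounds tested from 20 μM down to 0.001 μM (3-fold) against 6 nM PD-L1 His and 6 nM PD-1 Fc, 15 min room temperature incubation. Detection after 1 h at room temperature with Tb cryptate anti-6HIS and XL665 anti-human IgG reagents (mixture at 0.35 nM and 6.7 nM), HTRF signal.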

PD-L1 His protein / PD-1 Fc protein, sequence (Q9NZQ7 19-238 limits assumed): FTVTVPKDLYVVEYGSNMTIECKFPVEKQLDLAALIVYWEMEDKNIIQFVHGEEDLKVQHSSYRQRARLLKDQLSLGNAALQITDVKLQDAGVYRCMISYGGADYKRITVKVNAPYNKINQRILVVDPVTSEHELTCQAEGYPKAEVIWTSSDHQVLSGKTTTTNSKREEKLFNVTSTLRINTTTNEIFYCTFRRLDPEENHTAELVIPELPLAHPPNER

Take `COc1nc(-c2cccc(-c3cccc(-c4ccn5c(=O)c(CNCCN6CCCC6=O)cnc5c4)c3Cl)c2Cl)ccc1CNC[C@@H]1CCC(=O)N1` [Example 219, 8-[2-Chloro-3-[2-chloro-3-[6-methoxy-5-[[[(2S)-5-oxopyrrolidin-2-yl]methylamino]methyl]-2-pyridyl]phenyl]phenyl]-3-[[2-(2-oxopyrrolidin-1-yl)ethylamino]methyl]pyrido[1,2-a]pyrimidin-4-one]: the IC50 came out at 0.7 nM.
As to `COC(=O)C[C@H](O)CNCc1cnc2cc(-c3cccc(-c4cccc(-c5ccc(CNC[C@@H]6CCC(=O)N6)c(OC)n5)c4Cl)c3Cl)ccn2c1=O` [Example 220, Methyl (3S)-4-[[8-[2-chloro-3-[2-chloro-3-[6-methoxy-5-[[[(2S)-5-oxopyrrolidin-2-yl]methylamino]methyl]-2-pyridyl]phenyl]phenyl]-4-oxo-pyrido[1,2-a]pyrimidin-3-yl]methylamino]-3-hydroxy-butanoate], the IC50 came out at 0.1 nM. This IC50 is about 7-fold lower than that of the compound before.
The compound `COc1nc(-c2cccc(-c3cccc(-c4ccc5nc(CN[C@H]6C[C@H](O)C6)cc(=O)n5c4)c3Cl)c2Cl)ccc1CNC[C@@H]1CCC(=O)N1` [Example 221, 7-(2,2′-dichloro-3′-(6-methoxy-5-(((((S)-5-oxopyrrolidin-2-yl)methyl)amino)methyl)pyridin-2-yl)-[1,1′-biphenyl]-3-yl)-2-((((1r,3r)-3-hydroxycyclobutyl)amino)methyl)-4H-pyrido[1,2-a]pyrimidin-4-one] yielded an IC50 of 0.6 nM.
In the case of `COc1nc(-c2cccc(-c3cccc(-c4ccc5nc(CN6CC(C)(O)C6)cc(=O)n5c4)c3Cl)c2Cl)ccc1CNC[C@@H]1CCC(=O)N1` [Example 222, (S)-7-(2,2′-dichloro-3′-(6-methoxy-5-((((5-oxopyrrolidin-2-yl)methyl)amino)methyl)pyridin-2-yl)-[1,1′-biphenyl]-3-yl)-2-((3-hydroxy-3-methylazetidin-1-yl)methyl)-4H-pyrido[1,2-a]pyrimidin-4-one], inhibition was half-maximal at 0.2 nM (IC50).
In turn, `COc1nc(-c2cccc(-c3cccc(-c4ccn5c(=O)c(CNCCCC(F)(F)C(F)(F)F)cnc5c4)c3Cl)c2Cl)ccc1CNC[C@@H]1CCC(=O)N1` [Example 223, (S)-8-(2,2′-dichloro-3′-(6-methoxy-5-((((5-oxopyrrolidin-2-yl)-methyl)-amino)methyl)-pyridin-2-yl)-[1,1′-biphenyl]-3-yl)-3-(((4,4,5,5,5-pentafluoropentyl)amino)-methyl)-4H-pyrido[1,2-a]pyrimidin-4-one] yielded an IC50 of 10 nM.
`COc1nc(-c2cccc(-c3cccc(-c4ccn5c(=O)c(CNC6CCS(=O)(=O)CC6)cnc5c4)c3Cl)c2Cl)ccc1CNC[C@@H]1CCC(=O)N1` [Example 224, (S)-8-(2,2′-dichloro-3′-(6-methoxy-5-((((5-oxopyrrolidin-2-yl)-methyl)amino)-methyl)-pyridin-2-yl)-[1,1′-biphenyl]-3-yl)-3-(((1,1-dioxidotetrahydro-2H-thiopyran-4-yl)-amino)methyl)-4H-pyrido[1,2-a]-pyrimidin-4-one]: the IC50 was 2.8 nM.
For the compound `COc1nc(-c2cccc(-c3cccc(-c4cc(C)n5c(=O)c(CNC[C@H](C)O)cnc5c4)c3Cl)c2Cl)ccc1CNC[C@@H]1CCC(=O)N1` [Example 226, 8-(2,2′-Dichloro-3′-(6-methoxy-5-(((((S)-5-oxopyrrolidin-2-yl)methyl)amino)methyl)pyridin-2-yl)-[1,1′-biphenyl]-3-yl)-3-((((S)-2-hydroxypropyl)amino)methyl)-6-methyl-4H-pyrido[1,2-a]pyrimidin-4-one], half-maximal inhibition (IC50) was put at 15 nM.
For `COc1nc(-c2cccc(-c3cccc(-c4ccn5c(=O)c(CNC[C@@H]6CCC(=O)N6)c(Cl)nc5c4)c3Cl)c2Cl)ccc1CNC[C@@H]1CCC(=O)N1` [Example 227, 2-Chloro-8-(2,2′-dichloro-3′-(6-methoxy-5-(((((S)-5-oxopyrrolidin-2-yl)methyl)amino)methyl)pyridin-2-yl)-[1,1′-biphenyl]-3-yl)-3-(((((S)-5-oxopyrrolidin-2-yl)methyl)amino)methyl)-4H-pyrido[1,2-a]pyrimidin-4-one], 12 nM corresponded to half-maximal inhibition (IC50).
Compound `COc1cc2c(cc1CNC[C@@H]1CCC(=O)N1)CCC2=Cc1cccc(-c2cccc(-c3ccc(CNC[C@@H]4CCC(=O)N4)c(OC)n3)c2Cl)c1Cl` [Example 228, (S)-5-((((6-(2,2′-Dichloro-3′-((6-methoxy-5-(((((S)-5-oxopyrrolidin-2-yl)methyl)amino)methyl)-2,3-dihydro-1H-inden-1-ylidene)methyl)-[1,1′-biphenyl]-3-yl)-2-methoxypyridin-3-yl)methyl)amino)methyl)pyrrolidin-2-one] registered an IC50 of 3200 nM.
The compound `COc1nc(-c2cccc(-c3cccc(-c4ccn5c(=O)c(CN[C@H]6C[C@@](C)(O)C6)c(C)nc5c4)c3Cl)c2Cl)ccc1CNC[C@@H]1CCC(=O)N1` [Example 229, 8-(2,2′-Dichloro-3′-(6-methoxy-5-(((((S)-5-oxopyrrolidin-2-yl)methyl)amino)methyl)pyridin-2-yl)-[1,1′-biphenyl]-3-yl)-3-((((1s,3s)-3-hydroxy-3-methylcyclobutyl)amino)methyl)-2-methyl-4H-pyrido[1,2-a]pyrimidin-4-one] returned an IC50 of 6.9 nM.
The compound `COc1nc(-c2cccc(-c3cccc(-c4ccn5c(=O)c(CN[C@H]6C[C@@](C)(O)C6)c(C)nc5c4)c3Cl)c2Cl)ccc1CN[C@H]1C[C@@](C)(O)C1` [Example 230, 8-(2,2′-Dichloro-3′-(5-((((1s,3s)-3-hydroxy-3-methylcyclobutyl)amino)methyl)-6-methoxypyridin-2-yl)-[1,1′-biphenyl]-3-yl)-3-((((1s,3s)-3-hydroxy-3-methylcyclobutyl)amino)methyl)-2-methyl-4H-pyrido[1,2-a]pyrimidin-4-one] showed an IC50 of 98 nM.
Next, `COC(=O)C[C@H](O)CNCc1ccc(-c2cccc(-c3cccc(-c4ccn5c(=O)c(CNC[C@@H](O)CC(=O)OC)cnc5c4)c3Cl)c2Cl)nc1OC` [Example 231, Methyl (3S)-4-[[6-[2-chloro-3-[2-chloro-3-[3-[[[(2S)-2-hydroxy-4-methoxy-4-oxo-butyl]amino]methyl]-4-oxo-pyrido[1,2-a]pyrimidin-8-yl]phenyl]phenyl]-2-methoxy-3-pyridyl]methylamino]-3-hydroxy-butanoate]: 120 nM.
`COc1nc(-c2cccc(-c3cccc(-c4cc(F)c(CNC[C@@H]5CCC(=O)N5)c(OC)n4)c3Cl)c2Cl)ccc1CNC[C@@H]1CCC(=O)N1` [Example 232, (S)-5-((((6-(2,2′-dichloro-3′-(4-fluoro-6-methoxy-5-(((((S)-5-oxopyrrolidin-2-yl)methyl)amino)methyl)pyridin-2-yl)-[1,1′-biphenyl]-3-yl)-2-methoxypyridin-3-yl)methyl)amino)methyl)pyrrolidin-2-one] gave an IC50 of 63 nM.
Compound `COc1nc(-c2cccc(-c3cccc(-c4ccn5c(=O)c(CNCC6(O)CCC6)cnc5c4)c3Cl)c2Cl)ccc1CNC[C@@H]1CCC(=O)N1` [Example 233, (S)-8-(2,2′-Dichloro-3′-(6-methoxy-5-((((5-oxopyrrolidin-2-yl)methyl)amino)methyl)pyridin-2-yl)-[1,1′-biphenyl]-3-yl)-3-((((1-hydroxycyclobutyl)methyl)amino)methyl)-4H-pyrido[1,2-a]pyrimidin-4-one] showed an IC50 of 0.2 nM.
